Assay results reported in patent publication US20250001107A1, “BREATH-POWERED NASAL DEVICES FOR TREATMENT OF TRAUMATIC BRAIN INJURY (TBI), INCLUDING CONCUSSION, AND METHODS” (Oragenics, Inc., priority 2021, published 2025).

Columns and labels:
[1] = preclinical studies of neuroprotective effects; assay type: in vivo
[2] = blood-brain barrier crossing
[3] = test system: Animal models of concussion; assay: animal models of concussion, behavioral pathology; assay type: in vivo
[4] = lipophilicity; assay type: physicochemical

## CC(=O)[C@@H]1CCC2C3CCC4=CC(=O)CC[C@H]4C3CC[C@]21C (single isomer, unassigned) [ent-19-norprogesterone, ent-19-norpregn-4-ene-3,20-dione]
[1]
  neuroprotective effects compared to related neurosteroids: equivalent, if not superior, neuroprotective effects compared to related neurosteroids
[2]
  crossing of the blood-brain barrier: can easily cross the blood-brain barrier
[3]
  behavioral pathology associated with brain injury symptoms: reduces the behavioral pathology associated with brain injury symptoms such as memory impairment, anxiety, and motor/sensory performance
[4]
  lipophilicity: lipophilic
